Assay: In vitro glycosyl transferase performance, purified enzymes, % conversion of cannabinoids to cannabinoid glycosides
Format: biochemical
Details: for Conversion % (11-nor-9-carboxy-THC-glycoside produced): substrate 11-nor-9-carboxy-THC, enzyme PL-113(Tc90A_GA); for Conversion % (CBD to the glycoside): acceptor CBD; for Conversion % (THC-glycoside produced): substrate THC; for Conversion % (CBDV to the glycoside): acceptor CBDV; for Conversion % (CBG to the glycoside): acceptor CBG
Description: For in vitro studies of glycosyl transferase performance in glycosylating cannabinoids, purified Glycosyl transferases were prepared as follows:
5 mL of 2× concentrated LB medium+Ampicillin (50 μg/m L) was inoculated with E. coli XJb (DE3) strains expressing a glycosyl transferase of interest and incubated overnight at 30° C. with shaking. The following day, cell cultures were transferred into 500 mL of 2× concentrated LB medium+Ampicillin (50 μg/mL) and incubated overnight at 30° C. with shaking. The following day, the cell cultures were transferred to 1 L of 2× concentrated LB medium+Ampicillin (50 μg/mL)+3 mM arabinose+0.1 mM IPTG. Cells were incubated for 24 h at 20° C. with shaking. The following day, the cells were collected by centrifugation at 46500×g for 10 mins at 4° C. Cells were resuspended in 20 mL ice-cold GT buffer (50 mM Tris-HCl pH7.4+1 mM phenylmethanesulfonyl fluoride+1 cOmplete™, mini, EDTA-free Protease Inhibitor Cocktail tablet (Roche)). The resuspended material was transferred to a 50 mL falcon tube and kept at −80° C. for at least 15 mins. Falcon tubes were then thawed at room temperature, as the tubes were thawing the following reagents were added; 2.6 mM MgCl2, 1 mM CaCl2, 250 μL of a 1.4 mg/ml DNase solution (Sigma) dissolved in MilliQ water. Tubes were gently inverted to mix then were incubated for 5 mins at 37° C. Binding buffer was then added to the tubes (50 mM Tris-HCl pH7.4, 10 mM imidazole, 500 mM NaCl. 11.25 mL MilliQ water) and the pH adjusted to 7.4 with HCl. The mix was centrifuged at 15550×g for 15 mins at 4° C., the supernatant transferred to a fresh 50 mL falcon tubes and centrifuged again to remove any remaining cellular debris at 48400×g for 20 minutes at 4° C. While the enzyme prep was centrifuging, 3 mL of HIS-Select (available from Sigma P6611) column material was added to a fresh 50 mL tube and washed by adding MilliQ water up to 50 mL, centrifuging at 2000×g for 2 mins and discarding the supernatant. This washing step was repeated. Finally, MilliQ water was added to the HIS-Select material to an approximate 50% volume. Collected supernatant from the centrifuged enzyme preparation was transferred to the tube containing the HIS-Select material through a Miracloth (available from Merck Millipore), and then incubated at 4° C. with gently shaking by inversion for 2 h. After 2 h the mix was centrifuged at 2000×g for 4 minutes at 4° C. and the supernatant discarded. The remaining HIS-Select material was washed twice with 1× binding buffer (50 mM Tris-HCl, 0.5M NaCl, 10 mM Imidazole, pH 7.4) with centrifugation at 2000×g for 4 minutes at 4° C. The HIS-Select material was resuspended in 5 mL 1× binding buffer and transferred to a Poly-Prep®Chromatography Column (available from BioRad, 7311550). The HIS-Select material was kept at 4° C. and washed twice with 1× binding buffer by filling up the column and allowing it to drip through. Finally, purified Glycosyl transferases were eluted from the HIS-Select material by adding 7.5 mL of elution buffer (50 mM Tris-HCl, 500 mM Imidazole, pH7.4) and collecting the flow through. Enzymes were used immediately in in vitro enzyme assays or stored at −20° C. in 50% glycerol until needed.
In vitro conversion of various cannabinoids to cannabinoid glycosides was carried out according to table 21. Alkaline phosphatase was provided by New England Biolabs (M0371S). Cannabinoids were dissolved in methanol. The UDP-sugar (e.g. UDP-glucose) was provided by a commercial supplier (e.g. Sigma) or produced by in vitro enzymatic conversion from a commercially available UDP-sugar as shown in Example 21.
The reaction mixture was scaled up or down as required. The reaction mixture was incubated without shaking at 30° C. for 24 hours. Extraction and analysis were performed as described above for this example. […]

[1] = UDP-Xylose, enzyme PL-214(Cs73Y_GA)
[2] = UDP-Glucose, enzyme PL-214(Cs73Y_GA)

11-nor-9-carboxy-THC-1′-O-β-D-di-glucoside [OB42]
Conversion % (11-nor-9-carboxy-THC-glycoside produced) (sugar donor UDP-Glucose): 3.4%

C=C(C)C1CCC(C)=CC1c1c(O)cc(CCCCC)cc1O[C@@H]1O[C@H](CO)[C@@H](O)[C@H](O[C@@H]2O[C@H](CO)[C@@H](O)[C@H](O)[C@H]2O)[C@H]1O (stereo partly drawn) [OB2, CBD-1′-O-β-D-laminaribioside]
Conversion % (CBD to the glycoside) (UDP-Glucose, enzymes PL-159(Pt88G_GA) + PL-55(Sr76G1_GA)): 80.7%

C=C(C)C1CCC(C)=CC1c1c(O)cc(CCCCC)cc1OC1OC(COC2OC(CO)C(O)C(O)C2O)C(O)C(O)C1O (stereo not shown) [OB3]
Conversion % (CBD to the glycoside) (UDP-Glucose, enzymes PL-159(Pt88G_GA) + PL-152(Si94D_GA)): 96.4%

C=C(C)C1CCC(C)=CC1c1c(O)cc(CCCCC)cc1O[C@@H]1OC[C@@H](O)[C@H](O)[C@H]1O (stereo partly drawn) [OB9, CBD-1′-O-β-D-xyloside]
Conversion % (CBD to the glycoside) (UDP-Xylose, enzyme PL-159(Pt88G_GA)): 12.4%

C=C(C)C1CCC(C)=CC1c1c(O)cc(CCCCC)cc1OC1OC(C(=O)O)C(O)C(O)C1O (stereo not shown) [OB14]
Conversion % (CBD to the glycoside) (UDP-Glucuronic Acid, enzyme PL-214(Cs73Y_GA)): 2.0%

C=C(C)C1CCC(C)=CC1c1c(O)cc(CCCCC)cc1OC1OC(CO)C(O)C(O)C1O (stereo not shown) [OB16]
Conversion % (CBD to the glycoside) (UDP-Galactose, enzyme PL-214(Cs73Y_GA)): 62%

CCCCCc1cc(O[C@@H]2O[C@H](CO)[C@@H](O)[C@H](O)[C@H]2O)c2c(c1)OC(C)(C)[C@@H]1CCC(C)=C[C@@H]21 [OB20, THC-1′-O-β-D-glucoside]
Conversion % (THC-glycoside produced) (sugar donor UDP-Glucose, enzyme PL-182(Ha88B_2_GA)): 74.9%

CCCCCc1cc(OC2OCC(O)C(O)C2O)c2c(c1)OC(C)(C)C1CCC(C)=CC21 (stereo not shown) [OB21]
Conversion % (THC-glycoside produced) (sugar donor UDP-Xylose, enzyme PL-214(Cs73Y_GA)): 19.5%

C=C(C)[C@@H]1CCC(C)=C[C@H]1c1c(O)cc(CCC)cc1O[C@@H]1O[C@H](CO)[C@@H](O)[C@H](O)[C@H]1O [OB24, CBDV-1′-O-β-D-glucoside]
Conversion % (CBDV to the glycoside) (UDP-Glucose, enzyme PL-326(Ha72B_GA)): 92.6%

C=C(C)[C@@H]1CCC(C)=C[C@H]1c1c(O[C@@H]2O[C@H](CO)[C@@H](O)[C@H](O)[C@H]2O)cc(CCC)cc1O[C@@H]1O[C@H](CO)[C@@H](O)[C@H](O)[C@H]1O [OB25, CBDV-1′-O-β-O-glucosyl-3′-O-β-D-glucoside]
Conversion % (CBDV to the glycoside) (UDP-Glucose, enzyme PL-342(Cp73B_GA)): 4.5%

C=C(C)C1CCC(C)=CC1c1c(O)cc(CCC)cc1OC1OCC(O)C(O)C1O (stereo not shown) [OB29]
Conversion % (CBDV to the glycoside) [1]: 12.1%

C=C(C)C1CCC(C)=CC1c1c(OC2OC(CO)C(O)C(O)C2O)cc(CCCCC)c(C(=O)O)c1O [OB31, CBDA-1′-O-β-D-glucoside]
Conversion % (CBDA to the glycoside) (acceptor CBDA, UDP-Glucose, enzyme PL-214(Cs73Y_GA)): 92%

CCCCCc1cc(O)c(C/C=C(\C)CCC=C(C)C)c(O[C@@H]2O[C@H](CO)[C@@H](O)[C@H](O)[C@H]2O)c1 [OB32, CBG-1′-O-β-D-glucoside]
Conversion % (CBG to the glycoside) (UDP-Glucose, enzyme PL-340(Qs72S_1_GA)): 98.9%

CCCCCc1cc(O[C@@H]2O[C@H](CO)[C@@H](O)[C@H](O)[C@H]2O)c(C/C=C(\C)CCC=C(C)C)c(O[C@@H]2O[C@H](CO)[C@@H](O)[C@H](O)[C@H]2O)c1 [OB33, CBG-1′-O-β-D-glucosyl-3′-O-β-D-glucoside]
Conversion % (CBG to the glycoside) (UDP-Glucose, enzyme PL-5(At73C5_GA)): 4.5%

CCCCCc1cc(O)c(C/C=C(\C)CCC=C(C)C)c(O[C@@H]2OC[C@@H](O)[C@H](O)[C@H]2O)c1 [OB36]
Conversion % (CBG to the glycoside) [1]: 1.0%

CCCCCc1cc(O[C@@H]2O[C@H](CO)[C@@H](O)[C@H](O)[C@H]2O)c2c(c1)OC(C)(C)[C@@H]1CCC(C(=O)O)=C[C@@H]21 [OB41, 11-nor-9-carboxy-THC-1′-O-β-D-glucoside]
Conversion % (11-nor-9-carboxy-THC-glycoside produced) (sugar donor UDP-Glucose): 70.2%

CBD-1′-O-β-D-glucosyl-3′-O-β-D-di-glucoside [OB8]
Conversion % (CBD to the glycoside) [2]: 12.3%

CBD-1′-O-β-D-tri-glucoside [OB7]
Conversion % (CBD to the glycoside) [2]: 27.3%

CBG-1′-O-β-D-tetra-xyloside [OB40]
Conversion % (CBG to the glycoside) [1]: 1.2%

CBN-1′-O-β-D-di-glucoside [OB23]
Conversion % (CBN-glycoside produced) (substrate CBN, sugar donor UDP-Glucose, enzyme PL-342(Cp73B_GA)): 100%

B1: Cp7.38: glycosyl transferase, SEQ ID NO: 191, 192 (protein)
chain: MGSEVLHHDYSQLNIFFFPFMAHGHMIPTLDMAKLFATHGAKTSIITTPLNLPFFSKSIERFSKQTGLEIGVKLLNFPSVEVGLPSGCENADSLPAGEPLIVNKFFAAAGMLKDPLERLLQEFKPDCLIADMFFPWTTDAAAKFDIPRLVFHGTSFFALSASECIRLYTPFNNVSSDSEPFLVPTLPDEIRLTRNQLADFAMKEGDENGIHRLIKEAKESELKSYGVVVNSFYELEPAYADHYRNFLKRKAWHIGPVSLCNKTVEDKAERGKRASIDEDECLKWLNSKAPNSVIYICFGSMANFNSAQLMEIATALDASGQEFIWVVRREKNENNQEDWLPEGFEQRTEGKGLIIRGWAPQVLILEHEAVGGFVTHCGWNSTLEGVTAGMPMVTWPVSAEQFYNEKLVTEVLKIGLSVGVKKWVRSEGDFVSREKVEQAVREIMVGSEAVERRMRAKAMADMARAAVEKGGSSYNDLNALLREVSLMRRQQSQNQ
conversion of cannabinoid aglycone to cannabinoid glycoside in 24 h (CBN to CBN-1′-O-β-D-di-glucoside (OB23)): 100%

B2: Pt78G: glycosyl transferase, SEQ ID NO: 165, 166 (protein)
chain: MSEARNDLKHIAVLAFPVATHGPPLLSLVRRLSASASYAKFSFFSTKESNSKLFSKEDGLENIKPYNVSDGLPENYNFAGNLDEVMNYFFKATPGNFKQAMEVAVKEVGKDFTCIMSDAFLWFAADFAQELHVPWVPLWTSSSRSLLLVLETDLVHQKMRSIINEPEDRTIDILPGFSELRGSDIPKELFHDVKESQFAAMLCKIGLALPQAAVVASNSFEELDPDAVILFKSRLPKFLNIGPFVLTSPDPFMSDPHGCLEWLDKQKQESVVYISFGSVISLPPQELAELVEALKECKLPFLWSFRGNPKEELPEEFLERTKEKGKVVSWTPQLKVLRHKAIGVFVTHSGWNSVLDSIAGCVPMICRPFFGDQTVNTRTIEAVWGTGLEIEGGRITKGGLMKALRLIMSTDEGNKMRKKLQHLQGLALDAVQSSGSSTKNFETLLEVVAK
conversion of cannabinoid aglycone to cannabinoid glycoside in 24 h (CBG to CBG-1′-O-β-D-glucosyl-3′-O-β-D-glucoside (OB33)): 100%
